Several values for one entry are separate records, joined by “and”; a condition that tells them apart may be missing. Equal values may be shown once.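 1) Cells in 96-well plates. 2) Compound, 48 h, 5 concentrations. 3) Linear interpolation between surrounding doses. 4) Unreached endpoint = highest concentration. GI50: concentration for 50% inhibition of growth. TGI: total growth inhibition.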 *1 amine or outer side, *2 acyl side, *3 side chain or, on linkers, in order; H or OH if unused. Where a SMILES comes first, the peptide text is derived from it. [ ]: non-standard residue; d: D form. The star is where a group is joined. ξ: configuration not given here. NMeY = CN[C@@H](Cc1ccc(O)cc1)C(=O)O; Ethylenediamine = C(CN[*:2])N[*:1]; ξNMeL = CNC(CC(C)C)C(=O)O; Cbz = O=C(OCc1ccccc1)*; Lac = C[C@H](O)C(=O)O; ξA = CC(N)C(=O)O
Legend:
Test in all cases: inhibition of tumour cell growth, NCI panel, 48 h
HL-60(TB) leukemia = system: HL-60(TB) leukemia
ACHN renal = system: ACHN renal
TK-10 renal = system: TK-10 renal
CCRF-CEM leukemia = system: CCRF-CEM leukemia
OVCAR-5 ovarian = system: OVCAR-5 ovarian
KM12 colon = system: KM12 colon
HCC-2998 colon = system: HCC-2998 colon
K-562 leukemia = system: K-562 leukemia
SK-MEL-28 melanoma = system: SK-MEL-28 melanoma
UACC-62 melanoma = system: UACC-62 melanoma
MDA-N = system: MDA-N
SR leukemia = system: SR leukemia
A498 renal = system: A498 renal
HT29 colon = system: HT29 colon
PC-3 prostate = system: PC-3 prostate
EKVX NSCLC = system: EKVX NSCLC
NCI-H23 lung = system: NCI-H23 lung
RXF 393 renal = system: RXF 393 renal

Compound	TGI (HL-60(TB) leukemia) [µM]	TGI (ACHN renal) [µM]	TGI (TK-10 renal) [µM]	TGI (CCRF-CEM leukemia) [µM]	TGI (OVCAR-5 ovarian) [µM]	TGI (KM12 colon) [µM]	TGI (HCC-2998 colon) [µM]	TGI (K-562 leukemia) [µM]	TGI (SK-MEL-28 melanoma) [µM]	TGI (UACC-62 melanoma) [µM]	TGI (MDA-N) [µM]	TGI (SR leukemia) [µM]	TGI (A498 renal) [µM]	TGI (HT29 colon) [µM]	TGI (PC-3 prostate) [µM]	TGI (EKVX NSCLC) [µM]	TGI (NCI-H23 lung) [µM]	TGI (RXF 393 renal) [µM]	GI50 (CCRF-CEM leukemia) [µM]	GI50 (HCC-2998 colon)
Cc1c2n(c3ccccc13)S(=O)(=O)c1ccccc1-2	> 100	43	58.2	> 100	> 100	> 100	> 100	> 100	> 100	> 100	> 100	> 100	27.4	35.6	61.3	35.6	> 100	–	–	–
N#Cc1c(C#N)c(-c2ccccc2)n(Cc2ccccc2)c1N	> 100	> 100	> 100	> 100	> 100	> 100	> 100	> 100	–	> 100	> 100	> 100	> 100	> 100	> 100	> 100	> 100	> 100	–	–
COc1ccc(C[C@@H](C(=O)NCCNC(=O)C(CC(C)C)N(C)C(=O)[C@@H]2CCCN2C(=O)[C@H](C)O)N(C)C(=O)[C@@H]2CCCN2C(=O)[C@H](CC(C)C)NC(=O)C(C)NC(=O)OCc2ccccc2)cc1 (stereo partly specified) (Cbz-[ξA]LP[NMeY](Me)-{Ethylenediamine-ξNMeL-Pro-Lac})	> 100	> 100	> 100	> 100	> 100	> 100	> 100	> 100	> 100	> 100	> 100	> 100	> 100	> 100	> 100	> 100	> 100	> 100	–	–
CC(=O)N1c2ccccc2C2=NN(C)C(=N)SC21 (stereo unspecified)	> 100	> 100	> 100	> 100	> 100	> 100	> 100	> 100	> 100	–	> 100	> 100	> 100	> 100	> 100	> 100	> 100	–	–	–
COC(=O)CCC1=NCC(C)(C)O1	–	> 10	> 10	> 10	> 10	> 10	> 10	–	> 10	> 10	> 10	> 10	> 10	> 10	> 10	> 10	> 10	> 10	–	–
Cc1ccc(/C=C2/N=C(N/N=C\C(O)C(O)C(O)CO)NC2=O)cc1 (stereo unspecified)	> 100	> 100	> 100	> 100	> 100	> 100	> 100	> 100	> 100	–	> 100	> 100	> 100	> 100	> 100	> 100	–	> 100	51.5	> 100 µM and 30.9 µM
O=C(CC(O)(C(F)(F)F)C(F)(F)Cl)CC(O)(C(F)(F)F)C(F)(F)Cl (stereo unspecified)	> 10	> 10	9.9	> 10	–	> 10	> 10	> 10	> 10	> 10	> 10	> 10	9.22	> 10	7.37	> 10	4.34	6.58	–	–
COc1cc2oc(=O)cc(C)c2c(OC)c1O	–	> 100	> 100	> 100	> 100	> 100	–	> 100	> 100	> 100	> 100	> 100	94.8	> 100	> 100	> 100	> 100	–	–	–
CC(=O)NC1C(OC(C)C(=O)NC(C(=O)NC(CCC(=O)NCCCNC2c3ccccc3Nc3cccc([N+](=O)[O-])c32)C(N)=O)C(C)C)C(O)C(CO)OC1(C)OCc1ccccc1 (stereo unspecified)	–	2.19	0.695	4.59	9.44	3.48	2.2	7.65	–	2.1	4.78	0.634	4.11	0.417	3.33	3.43	3.3	2.13	–	–
COc1cccc2c1C1(O)C2CCCCCCCCCC12OCCCO2 (stereo unspecified)	> 47.8	> 100	> 100	> 92.4	> 100	> 100	> 100	> 100	> 100	> 100	> 100	35.6	> 100	> 59.2	> 100	–	> 100	> 100	–	–
O=C1c2c(Br)sc(Br)c2[C@@H](Cl)[C@H]1Cl	20.5	37.4	87.3	35.9	43	65.4	–	> 100	59.3	34.6	40.3	9.14	> 100	> 100	38.9	46.6	94	30.7	–	–
COc1ccc(C2C(C#N)=C(S)N(C3OC(COC(C)=O)C(OC(C)=O)C(OC(C)=O)C3OC(C)=O)C(C)=C2C(C)=O)cc1 (stereo unspecified)	> 100	> 100	> 100	> 100	> 100	> 100	> 100	> 100	> 100	> 100	> 100	> 100	–	> 100	> 100	–	> 100	> 100	–	–
N#CCCN(CCC#N)c1ccc(C(N=Nc2ccc(Cl)cc2)=Nc2ccccc2)cc1	–	27.2	29.1	–	26	31.3	20.6	> 100	30	21.8	22.8	> 100	34.5	34.3	25.5	24.4	25.7	30.8	–	–
O=[N+]([O-])C1=Cc2cc(Cl)ccc2OC1c1cccc2ccccc12 (stereo unspecified)	> 100	2.99	2.55	–	4.05	3.5	2.25	5.68	3.13	4.97	3.41	2.07	3.9	1.79	2.23	2.81	5.46	1.46	–	–
CC[C@H](C)C1=C(OC(C)=O)[N@+]2([O-])Oc3ccc(-c4c(O)c(O)c(-c5ccc(OC(C)=O)cc5)c(OC(C)=O)c4OC(C)=O)cc3O[C@]2([C@@H](C)CC)C(=O)N1O	> 50	> 50	> 50	–	> 50	> 50	–	29.2	> 50	46.9	> 50	39.7	> 50	> 50	> 50	> 50	> 50	> 50	–	–
Cn1c2c(c3ccccc31)CCN=C2C1CCCOC1=O (stereo unspecified)	> 100	> 100	> 100	–	> 100	> 100	> 100	–	> 100	> 100	> 100	> 100	> 100	> 100	> 100	> 100	–	> 100	–	–
Cn1nc2ccc([N+](=O)[O-])cc2[n+]1[O-]	–	> 100	> 100	> 100	> 100	> 100	> 100	> 100	–	> 100	> 100	> 100	> 100	> 100	> 100	> 100	> 100	> 100	–	–
N#Cc1cc2c(cc1C#N)/C(=N\c1cccc(N)n1)N=C2Nc1cccc(N)n1	> 100	57.3	68.8	> 100	> 100	> 100	57.5	> 100	48.7	41	59.6	> 100	–	85.7	> 100	> 100	40.1	–	–	–
O=c1[nH]nc(-c2ccccc2)n1/N=C/c1ccco1	> 100	> 100	> 100	> 100	> 100	> 100	–	–	> 100	> 100	> 100	> 100	> 100	> 100	> 100	> 100	> 100	> 100	–	–
COc1ccc2c(c1)c1c(n2CCN2CCOCC2)-c2cccc(OC)c2CC1	–	> 100	> 100	56.8	> 100	53.1	63.4	> 100	> 100	> 100	> 100	35.3	> 100	32.2	> 100	–	> 100	> 100	–	–
c1cc(-c2ccc(-c3nc4ccc(C5=NCCN5)cc4s3)s2)ccc1C1=NCCN1	2.08	1.28	2.42	0.574	0.327	1.67	0.162	4	–	–	1	1.43	–	2.08	2.27	2.69	> 100	–	–	–
CNCCN[C@@H]1c2cc3c(cc2[C@@H](c2cc(OC)c(O)c(OC)c2)[C@H]2C(=O)OC[C@@H]21)OCO3	0.0483	1.04	8.21	0.117	4.63	4.47	3.79	> 100	3.31	0.831	3.26	0.287	–	1.89	> 41	22.7	1.54	0.747	–	–
COc1ccc2c(c1)CC1COc3cc(OC)ccc3C1O2 (stereo unspecified)	–	–	> 100	> 100	> 100	> 100	> 100	–	–	> 100	> 100	> 100	> 100	> 100	> 100	> 100	> 100	–	–	–
Cc1c[nH]c(C(=O)O)c1-c1cccn1-c1ccc(Cl)cc1[N+](=O)[O-]	–	> 100	> 100	> 100	> 100	> 100	> 100	> 100	> 100	> 100	> 100	> 100	> 100	> 100	> 100	> 100	> 100	> 100	–	–
CCOc1ccccc1NC(=O)C(=O)C(/C(=N/N)C(=O)OC)c1nc2ccc([N+](=O)[O-])cc2[nH]c1=O (stereo unspecified)	> 100	–	> 100	> 100	> 100	> 100	> 100	> 100	> 100	> 100	> 100	> 100	> 100	> 100	> 100	> 100	–	> 100	–	–
Cc1ccc(/C=C/C(=N/NC(=O)N/N=C(/C=C/c2ccc(C)cc2)C(C)C)C(C)C)cc1	> 10	> 10	> 10	> 10	> 10	> 10	> 10	> 10	–	–	> 10	> 10	–	> 10	> 10	> 10	> 10	> 10	–	–
C=C1CCCC(C)(C)[C@H]1C/C=C1\CCOC1=O	43.8	29.4	34.5	> 100	–	31.8	> 100	26.5	29.6	> 100	33.3	> 100	31	28	31.5	30	39	–	–	–

Reference: PubChem BioAssay (NCI)
